Here are results for one substance from patent publication US20050049201A1, “Detection and removal of lead using lead-binding proteins” (priority 2001, published 2005).

For experiment [1] the following is noted: lead binding; Quintanilla-Vega 1995, Smith 1998; read-out: dissociation constant (Kd) of high affinity lead-binding region; cited from earlier work.
Experiment [2] in a line: Solid phase assay for lead: protein on nitrocellulose with chromogenic dye. The note with it: combined results, various buffers, pH, salts and dyes. The protocol: A solid phase assay for the detection of lead was also developed using one or more synthetically produced lead-binding proteins. Both TB4 and ACBP and the various mutants that have been generated from them can be used in this assay. The experiment is performed by binding the protein to a solid surface support, such as nitrocellulose paper, cotton, glass microfibers, or polystyrene beads using, for example, methods described herein. Then the sample to be tested, such as saliva or blood, is placed onto the surface and allowed to react with the protein. After washing with buffer, or example a neutral non-chelating buffer to remove any unreacted material, the sample is treated with a ligand that can detect a lead-leading binding protein complex, for example, a ligand that can cause a color chance upon detecting a lead-protein complex. Examples of such ligands include, sodium sulfide and sodium rhodizonic acid. Furthermore, the concentration of the lead in the sample being tested may be determined by the intensity of the spot produced upon binding of the dye. […]
As a control, the assay was tested using solutions containing several different buffers, pH conditions, and salts for reaction with the sodium sulfide and sodium rhodizonic acid dyes used. […] The pH was determined empirically for rhodizonic acid over a range of pH 4 to pH 8. […]

pKd: −log10 of the molar value.

As for “thymosin beta-4 (MSDKPDMAEIEKFDKSKLKKTETQEKNPLPSKETIEQEKQAGES; listed as Homo sapiens) [TB4]”, in experiment [1], the pKd is around 9.00. Moreover, in experiment [2], the “performance of solid phase lead detection assay” value was “works well under various conditions”.
